Like-named read-outs stand apart in the source and are kept apart here. Marks after values point to notes of the source that are not given here.
Key:
[1] = test system: SARS-CoV-2; assay type: cell-based; conditions: cells pre-treated, surfactin 35, WLIP 20, fengycin 50, caspofungin 100 µg/mL
[2] = test system: Vero E6 cells; experiment: Cytotoxicity, CyQUANT XTT cell viability assay; assay type: cell-based, Chlorocebus sp.; conditions: 72 h
Method: Chlorocebus sp. kidney epithelial cells (Vero E6; ATCC VERO C1008) were cultured in Dulbecco’s Modified Eagle medium (DMEM) High Glucose w/ Stable Glutamine w/ Sodium Pyruvate (VWR, USA) supplemented with 2% (vol/vol) of decomplemented fetal bovine serum (FBS, Biowest, France) and 1% (vol/vol) Penicillin-Streptomycin (VWR, USA). The cells were grown at 37°C in a humidified 5% CO2 atmosphere. Cells were routinely passaged when they reached 100% confluence and were passaged until passage 15.
The cytotoxic activity of the lipopeptides was assessed using a CyQUANT XTT Cell Viability Assay (Thermo Fisher Scientific) according to the manufacturer’s instructions. […] The cells were then incubated for 72 h at 37°C. The kit was then used following the manufacturer’s instructions, and the plates were read at 450 nm and 660 nm using a Multiskan GO Microplate Spectrophotometer (Thermo Fisher Scientific). The percentage of viable cells was calculated as (AT450 − AT660 − AB450) / (AC450 − AC660) × 100%, where AT450, AT660, AB450, AC450, and AC660 represent the absorbance of the tested well at 450 nm, of the tested well at 660 nm, of the blank (only medium) at 450 nm, of the control cells at 450 nm, and of the control cells at 660 nm, respectively. One hundred percent viability corresponds to the viability of uninfected cells. DMSO concentrations ranging from 0.5% (vol/vol) to 0.001% (vol/vol) were used as a negative control for the assay. Every sample was tested in triplicate.

[3] = test system: SARS-CoV-2; experiment: Replication / antiviral assay, viral RNA in supernatant by RT-qPCR; assay type: cell-based; conditions: for Reduction of viral RNA concentration: serum diluted five times, vs infected cells (Fig. 6)
[4] = test system: SARS-CoV-2; experiment: Binding inhibition: pre-treatment of SARS-CoV-2 and incubation on cells; assay type: cell-based; conditions: virus pre-treated, surfactin 35, WLIP 20, fengycin 50, caspofungin 100 µg/mL
[5] = test system: SARS-CoV-2; conditions: surfactin 35, WLIP 20, fengycin 50, caspofungin 100 µg/mL; 100% = untreated infected cells at 37°C
Method: To determine the impact of lipopeptides on the fusion step, intracellular viral RNA was quantified after infection of cells with SARS-CoV-2 but before the budding step. […] The cells were pre-chilled for 15 min on ice. The cells were infected with SARS-CoV-2 (MOI of 10) in DMEM + 2% FBS and incubated for 2 h on ice with gentle agitation. The inoculum was removed, and the cells were gently washed three times with ice-cold DPBS. The positive control was inactivated to determine the basal viral RNA concentration after binding of the virus. The lipopeptides were added to room temperature DMEM + 2% (vol/vol) FBS and incubated at 37°C for 7 h. […] The cells were rinsed with DPBS, and the wells were dried. The samples were inactivated for 30 min at 70°C before quantification of the viral RNA by RT-qPCR. Every sample was tested in triplicate.

[6] = test system: SARS-CoV-2; experiment: Binding inhibition: pre-infection treatment of cells; assay type: cell-based; conditions: cells pre-treated and cleared from unbound lipopeptide before infection; fengycin 50 µg/mL
Method: For the binding inhibition assays, four different conditions (Fig. 1) were tested to assess the potential of lipopeptides to inhibit the attachment of SARS-CoV-2 to cells in different settings. […] In these assays, SARS-CoV-2 was used at an MOI of 10, and every sample was tested in triplicate. Some steps were performed at 4°C to rigidify the cellular and viral membranes, allowing the virus to bind to the cells but not fuse with the […], as detailed below.
The cell supernatant was discarded, and the lipopeptides were added to the cells, which were subsequently incubated for 1 h at 37°C with gentle agitation. […] The viral stock was then added to the cells, which were subsequently incubated on ice for 1 h with gentle agitation.

Fengycin
Binding percentage of SARS-CoV-2 to cells [1]: 11.3% | Cell viability ([2]; 100 µg/mL, Vero E6): 64.1% | IC50 (half maximal inhibitory concentration, cytotoxicity) ([2]; Vero E6 cells, XTT, mean (standard deviation), fengycin and caspofungin determined at higher concentrations in a subsequent experiment): 295.3 (28.3)^b µg/mL | Cell viability ([2]; surfactin 35, WLIP 20, fengycin 50, caspofungin 100 µg/mL, Vero E6 (Fig. 5)): 89.9% | Reduction of viral RNA concentration ([3]; 24 h pi, surfactin 35, WLIP 20, fengycin 50, caspofungin 100 µg/mL): did not reduce the RNA concentration | Reduction of viral RNA concentration ([3]; 72 h pi, surfactin 35, WLIP 20, fengycin 50, caspofungin 100 µg/mL): 0.6 log | EC50 (half maximal effective concentration) ([3]; SARS-CoV-2 MOI 0.01, Vero E6, viral RNA at 72 h pi by RT-qPCR, mean (standard deviation)): 71.7 (20.7) µg/mL | Reduction in viral RNA ([3]; surfactin 35, WLIP 20, fengycin 50, caspofungin 100 µg/mL, 72 h (Fig. 5)): 3.2 log | Binding percentage of SARS-CoV-2 to cells [4]: 21.7% | Fusion percentage [5]: 17.2% | Binding percentage of SARS-CoV-2 to cells [6]: 54%

Reference: article PMC11577759, “The structure of lipopeptides impacts their antiviral activity and mode of action against SARS-CoV-2 in vitro” (Applied and Environmental Microbiology, 2024)
